Source: US5994055A, “HIV trans-activator Tat binding to CDK7 and activation of CTD phosphorylation” (priority 1997, dated 1999)
pIC50: −log10 of the molar value. Where no end group is shown, it is not given here. [ ]: non-standard residue; d: D form.

Experiments:
[1] = target: T1, recombinant CAK (CDK7, cyclin H, MAT1) (Homo sapiens, UniProt P50613); experiment: Kinase reaction: phosphorylation of the CTD by recombinant CAK; type: biochemical
T1 construct: made in house; host or cells: Sf9 insect cells (baculovirus co-infection)
Method: Recombinant baculoviruses encoding human CDK7 (Fisher et al., Cell 78:713-724 (1994)), MAT1 (Fisher et al., Cell 83:47-57 (1995)), and an N-terminally 6-histidine tagged version of cyclin H (Kim et al., Cell 77:599-608 (1994)) were constructed as described. 4×10^9 Sf9 insect cells were co-infected with all three baculoviruses (multiplicity of infection for each virus: 5 pfu/cell), incubated 2 days at 28° C., and harvested by centrifugation. Cells were resuspended in 120 ml buffer A (20 mM Na phosphate, 25 mM NaCl, 1 mM PMSF, 1 Ag/ml leupeptin, 2 μg/ml aprotinin, 1 mM DTT (pH 7.4). NaCl concentration was raised to 300 mM and the lysate was clarified by centrifugation and loaded over tandem 5-ml Pharmacia HiTrap Chelating columns loaded with CoCl2 and preequilibrated with buffer B (300 mM NaCl, 20 mM Na phosphate, 10% glycerol (pH 7.2)). The column was washed with buffer B+1 mM DTT and eluted with a linear gradient of 0-200 mM imidazole in buffer B+1 mM DTT. Fractions containing the CAK trimer were pooled, diluted 4-fold in buffer C (20 mM Hepes-NaOH, 1 mM EDTA, 10% glycerol, 1 mM DTT (pH 7.4)), and loaded on a 5 ml Pharmacia HiTrap Q column pre-equilibrated with buffer C. The column was washed with buffer C and eluted with a linear gradient of 25-1000 mM NaCl in buffer C. […]

[2] = system: Tat trans-activation of the HIV LTR in COS-7 cells; experiment: Peptide electroporation into COS-7 cells with pHIVΔKBCAT reporter, RNase protection assay; type: cell-based
DHFR promoter = experiment: In vitro transcription from the DHFR promoter (G-less cassette); type: biochemical; details: concentration not given
Method: Run-off transcription reactions from the wild-type HIV LTR and AdMLT promoters linearized with NcoI and HindIII respectively, were carried out as described (Okamoto et al., Proc. Natl. Acad. Sci. USA 93:11575-11579 (1996); Cujec et al., Mol. Cell. Biol. 17:1817-1823 (1997)). Transcription reactions containing the DHFR promoter (500 ng) fused to a G-less cassette (linearized at Nco I) were supplemented with 3 mM (NH4)2 SO4, 2% PEG 8000, 50 units of T1 RNase (Boehringer-Mannheim), 500 U of RNase inhibitor (Boehringer-Mannheim) and contained 5 μM instead of 40 μM of unlabeled UTP. Phosphocreatine, poly (d)I-(d)C, and poly(rI-rC) were omitted from the reactions.

[3] = system: Tat trans-activation of the HIV LTR; experiment: In vitro run-off transcription from the wild-type HIV LTR; type: biochemical; details: increasing concentrations / concentration not stated
Method: The ability of molecules to inhibit Tat trans-activation can be assessed using a variety of in vitro and in vivo assays. For example, Tat trans-activation can be assessed using in vitro run-off transcription reactions with transcription extracts (see, e.g., Current Protocols in Molecular Biology (Ausubel et al., eds., 1997)). In such an assay, nuclear transcription extracts are prepared from cultured mammalian cells according to standard procedures (see, e.g., Dignam et al., Nuc. Acids. Res. 11: 1475-1489 (1983)). Recombinant Tat protein is isolated according to standard procedures and added to the nuclear transcription extract along with the other components of the transcription reaction such as nucleotides (see, e.g., Cujec et al., supra; Example V). The reaction is also supplied with HIV promoter DNA sequences operably linked to a structural gene.
Run-off transcription reactions from the wild-type HIV LTR and AdMLT promoters linearized with NcoI and HindIII respectively, were carried out as described (Okamoto et al., Proc. Natl. Acad. Sci. USA 93:11575-11579 (1996); Cujec et al., Mol. Cell. Biol. 17:1817-1823 (1997)). […]

T1 sequence (P51946 whole entry): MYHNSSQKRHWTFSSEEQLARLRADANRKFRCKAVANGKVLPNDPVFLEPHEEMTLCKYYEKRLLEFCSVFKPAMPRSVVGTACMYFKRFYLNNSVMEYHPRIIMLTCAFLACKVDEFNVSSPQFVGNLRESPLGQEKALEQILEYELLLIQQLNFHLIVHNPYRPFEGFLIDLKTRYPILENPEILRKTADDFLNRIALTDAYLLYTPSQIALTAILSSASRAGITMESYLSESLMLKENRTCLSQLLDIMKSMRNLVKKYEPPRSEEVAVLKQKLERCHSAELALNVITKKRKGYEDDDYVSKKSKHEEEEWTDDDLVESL
T1 sequence (P50613 2-346): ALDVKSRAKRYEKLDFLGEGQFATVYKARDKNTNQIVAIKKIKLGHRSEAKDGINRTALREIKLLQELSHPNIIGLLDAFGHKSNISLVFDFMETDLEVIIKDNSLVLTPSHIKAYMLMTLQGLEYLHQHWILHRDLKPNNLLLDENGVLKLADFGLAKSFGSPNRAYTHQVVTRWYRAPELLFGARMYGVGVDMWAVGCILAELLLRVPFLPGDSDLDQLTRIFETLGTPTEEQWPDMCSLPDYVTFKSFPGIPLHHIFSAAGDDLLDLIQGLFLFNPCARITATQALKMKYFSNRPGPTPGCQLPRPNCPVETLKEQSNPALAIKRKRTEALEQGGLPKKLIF
T1 sequence (P51949 whole entry, further chain): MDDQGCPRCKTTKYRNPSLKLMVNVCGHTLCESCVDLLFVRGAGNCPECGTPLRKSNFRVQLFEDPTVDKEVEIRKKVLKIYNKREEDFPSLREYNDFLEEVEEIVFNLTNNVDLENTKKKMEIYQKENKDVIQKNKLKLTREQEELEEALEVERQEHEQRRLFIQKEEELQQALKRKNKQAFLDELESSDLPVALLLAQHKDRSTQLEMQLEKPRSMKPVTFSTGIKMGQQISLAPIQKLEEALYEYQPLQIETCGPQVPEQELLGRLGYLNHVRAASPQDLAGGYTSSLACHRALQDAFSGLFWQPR

Substance	pIC50 [1]	transcription in the absence of Tat ([2]; increasing concentrations, data not presented)	ratio of long to short transcripts ([2]; regardless of peptide concentration)	effect on the kinase activity of CAK ([1]; concentration not given)	transcription from the DHFR promoter (DHFR promoter)	Tat trans-activation [3]
ARAFGVPVRTYAHEVVTLWYRA [mC2p]	5.89					
HARTVGVWYRAEYARFVTPaVV (HARTVGVWYRAEYARFVTP[dA]VV) [rC2p, control]		no effect	remained the same	no effect	no effect	did not affect
